In patent US20150344466A1 (SUMITOMO CHEMICAL COMPANY, LIMITED, priority 2013, published 2015):

Tests used:
Assay type in all cases: in vivo
[1] = system: Plutella xylostella; assay: Foliar spray test on Plutella xylostella on cabbage (Test Example 10); conditions: 120 h, third instar larvae of Plutella xylostella on cabbage, 500 ppm spray 20 ml/cup, after five days, read-out: controlling value
Procedure: On the other hand, cabbage was planted in a polyethylene cup, and grown until the third-fourth true leaf was spread. The test spray solution was sprayed to the cabbage at a ratio of 20 ml/cup. After the drug solution sprayed on the cabbage was dried, 10 third instar larvae of Plutella xylostella were allowed to parasitize the cabbage. After five days, the number of Plutella xylostella was investigated, and the controlling value was calculated according to the following standard. Controlling value (%)={1−(Cb×Tai)/(Cai×Tb)}×100 In the equation, the symbols represent as follows. Cb: the number of insects in a non-treated section before treatment Cai: the number of insects in a non-treated section on observation Tb: the number of insects in a treated section before treatment Tai: the number of insects in a treated section on observation

[2] = system: Musca domestica; assay: Knockdown spray test on adult Musca domestica (Test Example 3); conditions: topical, 0.25 h, active ingredient 2.0% w/v, 0.5 ml sprayed, within 15 minutes, read-out: knockdown rate of the test insects within 15 minutes
Procedure: Ten adult Musca domestica (five males and five females) were released in a polyethylene cup (bottom diameter: 10.6 cm), and the cup was covered with a 16-mesh nylon gauze. The polyethylene cup was placed on the bottom of a test chamber (bottom: 46 cm×46 cm, height: 70 cm). From a height of 30 cm above the upper surface of the polyethylene cup, 0.5 ml of the test drug solution was sprayed using a spray gun (a spraying pressure of 0.9 kg/cm^2). Immediately after spraying, the cup was taken out from the test chamber, and after 2 minutes, 5 minutes and 15 minutes, the number of knocked-down insects was counted to obtain a knockdown rate. The knockdown rate was calculated by the following equation.
(§1) Knockdown Rate (%)=(Number of Knocked-down Insects/Number of Tested Insects)×100

[3] = system: Culex pipiens pallens; assay: Knockdown spray test on adult Culex pipiens pallens (Test Example 4); conditions: topical, 0.25 h, active ingredient 0.1% w/v, 0.5 ml sprayed, within 15 minutes, read-out: knockdown rate of the test insects within 15 minutes
Summary of the method: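 Ten adult mosquitoes in a gauze-covered cup inside a 46×46×70 cm chamber were sprayed with 0.5 ml of test solution from 30 cm at 0.4 kg/cm^2. The cup was removed at once, and knocked-down insects were counted at 2, 5 and 15 min; knockdown rate (%) = knocked-down/tested ×100.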

[4] = system: Blattella germanica; assay: Knockdown spray test on Blattella germanica, 2.0% w/v oil formulation (Test Example 1); conditions: topical, 0.25 h, active ingredient 2.0% w/v, 1.5 ml sprayed, within 15 minutes, read-out: knockdown rate of the test insects within 15 minutes
Procedure: Ten Blattella germanica (5 males and 5 females) were released in a test container (8.75 cm in diameter, 7.5 cm in height, and the bottom made of 16 mesh metallic wire) with the inner wall on which butter was applied, and the container was placed on the bottom of a test chamber (bottom: 46 cm×46 cm, height: 70 cm). From a height of 60 cm above the upper surface of the container, 1.5 ml of the test drug solution was sprayed using a spray gun (a spraying pressure of 0.42 kg/cm^2). Thirty seconds after spraying, the container was taken out from the test chamber, and after 2 minutes, 5 minutes and 15 minutes, the number of knocked-down insects was counted to obtain a knockdown rate. The knockdown rate was calculated by the following equation.
as §1

[5] = system: Culex pipiens pallens; assay: Larvicidal test on Culex pipiens pallens, eight days (Test Example 7); conditions: 192 h; last-instar larvae of Culex pipiens pallens; 3.5 ppm in water; eight days later; read-out: death rate
Procedure: 20 last-instar larvae of Culex pipiens pallens were released into a liquid to which 0.7 ml of the above test drug solution was added to 100 ml of ion-exchanged water (a concentration of the active ingredient of 3.5 ppm). Eight days later, the life and death of the Culex pipiens pallens was examined, and the death rate was calculated. The death rate was calculated by the following equation.
Death rate (%)=(Number of dead insects/Number of tested insects)×100

[6] = system: Musca domestica; assay: Filter paper/sucrose bait death rate test on Musca domestica (Test Example 5); conditions: female imagoes of Musca domestica, 0.7 ml on filter paper, after 24 hours
Summary of the method: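 Filter paper in a 5.5 cm cup dosed with 0.7 ml test drug solution, with 30 mg sucrose as bait. Ten female adult houseflies released and cup sealed. Dead insects counted after 24 h; death rate (%) = dead/tested × 100.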

[7] = system: Blattella germanica; assay: Knockdown spray test on Blattella germanica, 0.1% w/v oil formulation (Test Example 2); conditions: topical, 0.25 h, active ingredient 0.1% w/v, 1.5 ml sprayed, within 15 minutes, read-out: knockdown rate of the test insects within 15 minutes
Summary of the method: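 Ten German cockroaches (5 males, 5 females) in a mesh-bottomed, butter-walled container were sprayed with 1.5 ml test solution from 60 cm at 0.42 kg/cm^2 inside a chamber.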

| Structure (SMILES) | pest or weed control at 500 ppm [1] [%] | pest or weed control at 2 % strength [2] [%] | pest or weed control at 0.1 % strength [3] [%] | pest or weed control at 2 % strength [4] [%] | pest or weed control at 3.5 ppm [5] [%] | pest or weed control at 500 ppm [6] [%] | pest or weed control at 0.1 % strength [7] [%] |
| --- | --- | --- | --- | --- | --- | --- | --- |
| O=C(NCC1CCOC1)c1cc(COCc2ccccc2)on1 (stereo not drawn) [(13), N-(tetrahydrofuran-3-ylmethyl)-5-benzyloxymethylisoxazole-3-carboxamide] | ≥ 90 | ≥ 80 | ≥ 80 | ≥ 80 | – | – | – |
| O=C(NCC1CCOCC1)c1cc(COCc2ccccc2)on1 [(15), N-(tetrahydropyran-4-ylmethyl)-5-benzyloxymethylisoxazole-3-carboxamide] | ≥ 90 | ≥ 80 | ≥ 80 | ≥ 80 | – | – | – |
| O=C(NCC1CCOCC1)c1cc(COCc2ccc3ccccc3c2)on1 [(21), N-(tetrahydropyran-4-ylmethyl)-5-(2-naphthylmethoxymethyl)isoxazole-3-carboxamide] | – | ≥ 80 | ≥ 80 | ≥ 80 | ≥ 90 | – | – |
| O=C(NCC1CCOC1)c1cc(CCCc2ccccc2)on1 (stereo not drawn) [(22), N-(tetrahydrofuran-3-ylmethyl)-5-(3-phenylpropyl)isoxazole-3-carboxamide] | – | ≥ 80 | ≥ 80 | ≥ 80 | – | ≥ 90 | – |
| O=C(NCC1CCOC1)c1cc(Cc2ccccc2)on1 (stereo not drawn) [(26), N-(tetrahydrofuran-3-ylmethyl)-5-benzylisoxazole-3-carboxamide] | – | ≥ 80 | ≥ 80 | ≥ 80 | – | ≥ 90 | – |
| O=C(NCC1CCOC1)c1cc(COCc2ccc(Cl)cc2)on1 (stereo not drawn) [(70), N-(tetrahydrofuran-3-ylmethyl)-5-(4-chlorobenzyloxymethyl)isoxazole-3-carboxamide] | ≥ 90 | – | ≥ 80 | – | ≥ 90 | – | ≥ 80 |
| O=C(NCC1CCOC1)c1cc(COCc2cccc(OC(F)(F)F)c2)on1 (stereo not drawn) [(78), N-(tetrahydrofuran-3-ylmethyl)-5-(3-trifluoromethoxybenzyloxymethyl)isoxazole-3-carboxamide] | – | – | ≥ 80 | – | ≥ 90 | – | ≥ 80 |
| O=C(NCC1CCOC1)c1cc(COCc2ccc(Br)cc2)on1 (stereo not drawn) [(91), N-(tetrahydrofuran-3-ylmethyl)-5-(4-bromobenzyloxymethyl)isoxazole-3-carboxamide] | ≥ 90 | – | ≥ 80 | – | ≥ 90 | – | ≥ 80 |
| O=C(NCC1CCOCC1)c1cc(COCc2ccc(SC(F)(F)F)cc2)on1 [(96), N-(tetrahydropyran-4-ylmethyl)-5-(4-trifluoromethylthiobenzyloxymethyl)isoxazole-3-carboxamide] | – | – | ≥ 80 | – | ≥ 90 | – | – |
| O=C(NCC1CCOC1)c1cc(COCC2CCc3ccccc3C2)on1 (stereo not drawn) [(118), N-(tetrahydrofuran-3-ylmethyl)-5-(1,2,3,4-tetrahydronaphthalen-2-ylmethoxymethyl)isoxazole-3-carboxamide] | ≥ 90 | ≥ 80 | ≥ 80 | ≥ 80 | – | – | – |
| O=C(NCC1CCOC1)c1cc(CCCOCc2ccccc2)on1 (stereo not drawn) [(139), N-(tetrahydrofuran-3-ylmethyl)-5-(3-benzyloxypropyl)isoxazole-3-carboxamide] | – | ≥ 80 | ≥ 80 | ≥ 80 | – | – | – |
| O=C(NCC1CCOC1)c1cc(CCCCOCc2ccccc2)on1 (stereo not drawn) [(140), N-(tetrahydrofuran-3-ylmethyl)-5-(4-benzyloxybutyl)isoxazole-3-carboxamide] | – | ≥ 80 | ≥ 80 | ≥ 80 | – | – | – |
| O=C(NCC1CCOC1)c1cc(CCCCCOCc2ccccc2)on1 (stereo not drawn) [(141), N-(tetrahydrofuran-3-ylmethyl)-5-(5-benzyloxypentyl)isoxazole-3-carboxamide] | – | ≥ 80 | ≥ 80 | ≥ 80 | – | – | – |
| O=C(NCC1CCOC1)c1cc(CCCCCCOCc2ccccc2)on1 (stereo not drawn) [(143), N-(tetrahydrofuran-3-ylmethyl)-5-(6-benzyloxyhexyl)isoxazole-3-carboxamide] | – | ≥ 80 | ≥ 80 | ≥ 80 | – | – | – |
| O=C(NCC1CCOC1)c1cc(CCCCOc2ccccc2)on1 (stereo not drawn) [(146), N-(tetrahydrofuran-3-ylmethyl)-5-(4-phenoxybutyl)isoxazole-3-carboxamide] | – | ≥ 80 | ≥ 80 | ≥ 80 | ≥ 90 | – | – |
| O=C(NCC1CCOC1)c1cc(Cc2cccc(C(F)(F)F)c2)on1 (stereo not drawn) [(158), N-(tetrahydrofuran-3-ylmethyl)-5-(3-trifluoromethylbenzyl)isoxazole-3-carboxamide] | – | ≥ 80 | ≥ 80 | ≥ 80 | – | – | – |
| COC(=O)c1c(C(=O)NCC2CCOC2)noc1COCc1ccccc1 (stereo not drawn) [(167), N-(tetrahydrofuran-3-ylmethyl)-(5-benzyloxymethyl-4-methoxycarbonyl)isoxazole-3-carboxamide] | – | – | – | – | ≥ 90 | – | – |
| O=C(NCC1CCOCC1)c1cc(COc2cccc(C(F)(F)F)c2)on1 [(199), N-(tetrahydropyran-4-ylmethyl)-5-(3-trifluoromethylphenoxymethyl)isoxazole-3-carboxamide] | – | – | ≥ 80 | – | ≥ 90 | – | – |
| O=C(NCC1CCOC1)c1cc(COCC#Cc2ccccc2)on1 (stereo not drawn) [(240), N-(tetrahydrofuran-3-ylmethyl)-5-(3-phenyl-2-propionyl)oxymethylisoxazole-3-carboxamide] | – | ≥ 80 | ≥ 80 | ≥ 80 | – | – | ≥ 80 |
| O=C(NCC1CCOC1)c1cc(CCCc2ccc(Cl)cc2)on1 (stereo not drawn) [(252), N-(tetrahydrofuran-3-ylmethyl)-5-[3-(4-chlorophenyl]propyl) isoxazole-3-carboxamide] | – | – | ≥ 80 | – | ≥ 90 | ≥ 90 | ≥ 80 |
| Cc1c(C(=O)NCC2CCOC2)noc1CCCc1ccccc1F (stereo not drawn) [(282), N-(tetrahydrofuran-3-ylmethyl)-4-methyl-5-[3-(2-fluorophenyl)propyl]isoxazole-3-carboxamide] | – | – | ≥ 80 | – | ≥ 90 | ≥ 90 | ≥ 80 |
| CC1(CNC(=O)c2cc(COCc3ccccc3)on2)COC1 [(334), N-(3-methyloxetan-3-ylmethyl)-5-benzyloxymethylisoxazole-3-carboxamide] | – | ≥ 80 | ≥ 80 | ≥ 80 | – | – | ≥ 80 |
